Measurements from PubChem BioAssay AID977621 (Broad Institute, 2014).
Inconclusive results are not listed. Activity calls are given as the source filed them.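 How the source made its calls: active means Wild-type ribosome reporter drop at least double the humanized mutant ribosome reporter drop, growth loss under a set limit; inconclusive means no clear call, values can overlap the other calls; inactive means the rest.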

What follows are compounds tested on E. coli wild-type GFP strain growth, fluorescence, 24 h (assay: wild-type E. coli growth inhibition versus H69 humanized strain – H69 mutant RFP, wild-type GFP, cherry-pick, dose response (AID 977621;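 further: wild-type GFP and H69 mutant RFP strains grown together 50/50 in each well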)). Conditions: not given.

SMILES | AC50
Cc1ccc(C2NC(=O)c3[nH]nc(-c4ccccc4)c32)cc1 (centres undefined) | > 100 µM (inactive)
COc1cc(C(N)=O)cc(Br)c1OCc1ccccc1 | > 100 µM (inactive)
COC(=O)C(Cc1csc2ccc(Cl)cc12)NC(=O)c1ccc(Cl)cc1 (centres undefined) | > 100 µM (inactive)
CSCCC(=O)Nc1nc(-c2ccccn2)cs1 | > 100 µM (inactive)
N#Cc1cccc(-c2ccc3c(c2)[C@H]2[C@H](CCN2C(=O)c2ccccc2F)[C@H](CO)N3)c1 | > 100 µM (inactive)
Cc1cccc(CSCC(=O)N2CCN(S(=O)(=O)c3ccccc3C#N)CC2)c1 | > 100 µM (inactive)
O=C1NC(=O)C2(Cc3cc([N+](=O)[O-])ccc3N3CCN(C(=O)c4ccccc4)CC32)C(=O)N1 (centres undefined) | > 100 µM (inactive)
CCOC(=O)c1ccc(CC(=O)c2oc3cc(O)ccc3c2C)o1 | > 100 µM (inactive)
CC1=Nc2cc(C(=O)NCC3CCCO3)ccc2Sc2ccc(Br)cc21 (centres undefined) | > 100 µM (inactive)
CCOC(=O)c1cc2sccc2n1CCCN1C(=O)c2ccccc2C1=O | > 100 µM (inactive)
Cc1cc(C)c(OCCNC(=O)c2ccccc2Sc2ccccc2C#N)c(C)c1 | > 100 µM (inactive)
Cc1noc(C)c1NC(=O)Nc1ccc2c(c1)C(=O)N([C@@H](C)CO)C[C@H](C)[C@H](CN(C)C(=O)Nc1ccc3c(c1)OCO3)OCCCC[C@H](C)O2 | > 100 µM (inactive)
CN(Cc1ccccc1)C(=O)c1[nH]cnc1C(=O)NCc1ccccc1 | > 100 µM (inactive)
Cc1cc(NC(=O)CN2CCN(c3cccc(Cl)c3)CC2)no1 | > 100 µM (inactive)
O=C(NCc1ccc2c(c1)OCO2)c1sccc1Br | > 100 µM (inactive)
O=C(Nc1ccc2c(c1)OCO2)c1cc(-c2ccncc2)nc2ccccc12 | > 100 µM (inactive)
NS(=O)(=O)c1cc(C(=O)OCC(=O)Nc2ccccc2[N+](=O)[O-])ccc1Cl | > 100 µM (inactive)
COc1ccccc1N(C)S(=O)(=O)c1ccc(C(=O)NC(C)c2ccccc2)cc1 (centres undefined) | > 100 µM (inactive)
COc1ccccc1NC(=O)CN1CCSc2ccccc21 | > 100 µM (inactive)
COc1ccccc1CCNC(=O)c1cccc(NC(=O)CC2SC(N3CCCCC3)=NC2=O)c1 (centres undefined) | > 100 µM (inactive)
O=C(CN1CCCC1)Nc1ccccc1Sc1ccc(Cl)cc1 | > 100 µM (inactive)
O=C1c2cccc3cccc(c23)C(=O)N1c1ccccc1Cl | > 100 µM (inactive)
COc1ccc(OC)c(S(=O)(=O)Nc2cccc3ccccc23)c1 | > 100 µM (inactive)
OCCCc1cn(-c2ccccc2)c2ccccc12 | > 100 µM (inactive)
Cc1ccccc1OCc1nc2ccccc2n1C | > 100 µM (inactive)

SMILES | AC50
c1ccc(Cc2nc3ccccc3s2)cc1 | > 100 µM (inactive)
CC(C)(CC(=O)O)CC(=O)NCc1c(Cl)cccc1Sc1ccc(Cl)cc1 | > 100 µM (inactive)
COc1ccc([C@H]2C[C@H](O)C[C@@H](CCn3cc(-c4ccccc4)nn3)O2)cc1 | > 100 µM (inactive)
CC(=O)N1c2c(cc(Br)cc2S(=O)(=O)N2CCCCC2)CC1C (centres undefined) | > 100 µM (inactive)
O=[N+]([O-])c1cncc([N+](=O)[O-])c1Nc1cccc(O)c1 | > 100 µM (inactive)
CCOc1ccc(NC(=O)CN2C(=O)COc3ccc(S(=O)(=O)N4CCCC4)cc32)cc1 | > 100 µM (inactive)
COc1ccc(C(=O)C2CCCN(C(=O)c3noc4c3CCCC4)C2)cc1F (centres undefined) | > 100 µM (inactive)
Cc1cc(CNC(=O)COc2ccc(C)c(C)c2)c2ccccc2n1 | > 100 µM (inactive)
O=C(NCc1nnnn1-c1ccc(Cl)cc1)c1ccc([N+](=O)[O-])o1 | > 100 µM (inactive)
CCOc1ccccc1OCCCC(=O)N1CCN(S(=O)(=O)c2cc(F)ccc2F)CC1 | > 100 µM (inactive)
Cc1ccc(C(=O)OCC(=O)c2c[nH]c3ccccc23)cc1NC(=O)c1ccco1 | > 100 µM (inactive)
COCc1cc(C)nc(SCC[N+](C)(C)CC(=O)c2ccc(Br)cc2)c1C#N | > 100 µM (inactive)
CC(C)N1CC2(CC(c3ccccc3C(F)(F)F)=NO2)CN1C(=O)c1ccco1 (centres undefined) | > 100 µM (inactive)
CCOc1ccc(OCc2cccc(C(=O)O)c2)cc1 | > 100 µM (inactive)
CCSc1nc2ccccc2c(=O)n1Cc1ccc(F)cc1 | > 100 µM (inactive)
Cn1cnc(CCNC(=O)C[C@H]2CC[C@@H]3[C@H](COC[C@H](O)CN3C(=O)Nc3ccc(Cl)cc3)O2)c1 | > 100 µM (inactive)
CCN(c1ccccc1)S(=O)(=O)c1ccc(OC)c(OC)c1 | > 100 µM (inactive)
CCc1cc2c(NC(Cc3c[nH]c4ccccc34)C(=O)O)nc(C)nc2s1 (centres undefined) | > 100 µM (inactive)
O=C1CSC(c2cccnc2)N1Cc1ccc(Cl)c(Cl)c1 (centres undefined) | > 100 µM (inactive)
CCN(C(=O)COC(=O)c1ccc([N+](=O)[O-])o1)c1cccc2ccccc12 | > 100 µM (inactive)
O=C(c1ccc(Cl)cc1)N1CCN(c2cccc3[nH]ccc23)CC1 | > 100 µM (inactive)
COc1cc2[nH]c(=S)nc(NCCc3ccc(C)cc3)c2cc1OC | > 100 µM (inactive)
CN1CCN(C(=O)c2cc3sc4ccccc4c3s2)CC1 | > 100 µM (inactive)
Cc1sc2ncnc(N3CCCC(C)C3)c2c1C (centres undefined) | > 100 µM (inactive)
N#Cc1ccc(OCC(=O)N2CCN(S(=O)(=O)c3ccc(Cl)s3)CC2)cc1 | > 100 µM (inactive)

Same assay, conditions: E. coli mixed culture, 24 h; measured here: total growth OD600, test 1

SMILES | AC50 [µM]
Cc1cc(C)c(OCCNC(=O)c2ccccc2Sc2ccccc2C#N)c(C)c1 | 5.7

Same assay, conditions: E. coli mixed culture, 24 h; measured here: total growth OD600, test 2

SMILES | AC50 [µM]
Cc1ccc(C2NC(=O)c3[nH]nc(-c4ccccc4)c32)cc1 (centres undefined) | 42.3
COc1cc(C(N)=O)cc(Br)c1OCc1ccccc1 | 35.4
COC(=O)C(Cc1csc2ccc(Cl)cc12)NC(=O)c1ccc(Cl)cc1 (centres undefined) | 18.4
Cc1cccc(-c2ccc([C@@H]3[C@@H](CO)N4CCCCN(S(=O)(=O)c5ccccc5C)C[C@H]34)cc2)c1 | 48.8
O=C(CN1CCN(S(=O)(=O)c2ccc(Cl)cc2)CC1)Nc1ccc2c(c1)CCC2 | > 100
CCOC(=O)c1cc2sccc2n1CCCN1C(=O)c2ccccc2C1=O | > 100
O=C(COc1cc(F)ccc1[N+](=O)[O-])NCCCc1ccccc1 | > 100
CN(Cc1ccccc1)C(=O)c1[nH]cnc1C(=O)NCc1ccccc1 | > 100
CCc1ccc(CN2CCCC(CNS(=O)(=O)c3ccc(OC)cc3)C2)cc1 (centres undefined) | > 100
NS(=O)(=O)c1cc(C(=O)OCC(=O)Nc2ccccc2[N+](=O)[O-])ccc1Cl | > 100
CCOC(=O)C(C)Sc1nc(N2CCOCC2)c2c(c1C#N)CC(C)(C)OC2 (centres undefined) | > 100
O=C(CCCOc1ccc(Cl)cc1Cl)Nc1ccccc1C(=O)O | 33.7
CCN(CC(=O)Nc1cccc(S(=O)(=O)N2CCCC2)c1)CC(=O)Nc1ccccc1OC | > 100
COc1ccc(C(=O)NCCC2=CCCCC2)cc1[N+](=O)[O-] | > 100
COc1ccc(-c2csc(C)n2)cc1Br | > 100
O=C(CN1CCCC1)Nc1ccccc1Sc1ccc(Cl)cc1 | 29.9
CCOc1ccc2nc(NC(=O)CSc3nc(SC)ns3)sc2c1 | > 100
c1ccc(Cc2nc3ccccc3s2)cc1 | > 100
COc1ccc([C@H]2C[C@H](O)C[C@@H](CCn3cc(-c4ccccc4)nn3)O2)cc1 | > 100
O=S(=O)(c1ccc(F)cc1)N1C[C@@H]2N[C@H](C1)C2c1ccc(/C=C/c2ccccc2)cc1 (some centres undefined) | 41.3
C=CCn1c(C)cc(C(=O)COC(=O)CNC(=O)c2ccccc2)c1C | 44
CCSc1nc2ccccc2c(=O)n1Cc1ccc(F)cc1 | 49.4
CCc1nnc(NS(=O)(=O)c2ccc(NC(=O)c3cc(Cl)ccc3[N+](=O)[O-])cc2)s1 | 51.9
CCN(c1ccccc1)S(=O)(=O)c1ccc(OC)c(OC)c1 | > 100
O=C1CSC(c2cccnc2)N1Cc1ccc(Cl)c(Cl)c1 (centres undefined) | > 100
COc1ccc(CN(C)C[C@H]2Oc3ccc(NS(=O)(=O)c4ccc(Cl)cc4)cc3CC(=O)N([C@@H](C)CO)C[C@H]2C)cc1 | > 100
COc1ccc(NS(=O)(=O)c2cccc3ccccc23)cc1 | 33.7
O=C(Cc1cccc(NC(=O)C2CCN(C(=O)C3CCCCC3)CC2)c1)Nc1cccc(C(=O)N2CCCC2)c1 | > 100
